Laboratory results published in patent US20260166182A1, “CYANINE-BASED FLUOROPHORES” (The General Hospital Corporation, priority 2022, published 2026).

Assays:
[1] = tested on: triple-negative breast adenocarcinoma (E0771 cell); test: NIR-II fluorescence imaging of subcutaneous breast tumor-bearing C57BL/6 mice; format: in vivo, mouse; settings: larger-sized breast tumors
Source text: General NIR-II fluorescence imaging: A 640×512-pixel InGaAs camera (Ninox640, Raptor Photonics) and macro zoom lens (0-10×; Navitar Zoom 7000 with SWIR coating) along with 900, 1070, 1100, and 1200 nm long-pass (LP) filters from either Thorlab or Edmund optics were used to collect the NIR-II signal. InGaAs camera played a role as an open-air imaging system along with the support of the FLARE system. An 808 nm fiber-coupled diode laser ([…] at the sample) was used as an excitation source. Data acquisition was done using in-house developed software. The mice fur on the region of interest was shaved prior to imaging using a clipper and removed completely using a depilatory cream. 100 μL of SH1 in 5 w/v % BSA saline ([…]) was injected through the tail vein. Mice were imaged with intact skin using InGaAs camera. At least 3 mice were analyzed for each sample. […]
Statistical analysis: The fluorescence and background intensities of a region of interest over each tissue were quantified using customized imaging software and ImageJ v1.48 (National Institutes of Health, Bethesda, MD). The signal-to-background ratio (SBR) was calculated as SBR=fluorescence/background, where background was the fluorescence intensity of muscle. […] The differences among groups were determined using one-way ANOVA analysis to assess the statistical differences among more than two groups. […]

LLC tumor = test: Quantitative 3D FLECT/CT tumor accumulation; format: in vivo, mouse; settings: from 24 h to 48 h post-injection
Method: Quantitative analysis using InSyTe FLECT/CT: 3D fluorescence images were acquired with the TriFoil Imaging InSyTe FLECT/CT, a commercial preclinical imaging system with full 3D fluorescence tomography imaging capability and an inline CT system. Animals were anesthetized with isoflurane during scans. FLECT scans were performed with 116 projections per slice, 780 nm laser for excitation, and 853/45 bandpass fluorescence emission filter. After data collection, fluorescence images were reconstructed using a proprietary FLECT reconstruction engine. CT scans were performed with 360 projections per slice, 35 kV tube voltage, 950 uA tube current, and 100 ms exposure. CT images were reconstructed using the COBRA filtered back-projection algorithm (Exxim, Computing Corporation, Pleasanton, CA). Quantitative analysis of 3D fluorescence images was performed using the VivoQuant 2020 image analysis software (Invicro, Boston, MA). FLECT and CT images were co-registered in VivoQuant 2020. Volumes-of-interest (VOI) were segmented via intensity thresholding, where the threshold limits were set to the local full-width-half-maximum (FWHM) intensity value for the lower threshold bound and local maximum intensity value for the upper threshold bound.

[2] = Photostability under xenon lamp irradiation; format: physicochemical; settings: 2 h
Method: Optical Study, Photostability, Physicochemical Properties, and DFT Calculation: 1 mM stock solution in DMSO of the synthesized fluorophores was prepared before starting any spectral measurement. Optical properties for the synthesized fluorophores were measured in four different solvents (EtOH, DMSO, HEPES, and PBS). Absorbance spectra were measured in a Varian Cary 50 absorbance spectrophotometer (190-1100 nm). Fluorescence emission and photostability were measured and emission spectra were recorded on a Shimadzu RF-5301PC spectrofluorometer. Physicochemical properties (Log D, molecular mass, TPSA, H bond D/A, polarizability, molecular volume, and rotatable bonds) were predicted by ChemAxon (JChem plugin). Theoretical calculations of frontier molecular orbitals (FMOs) for the optimized structures of selected fluorophores were calculated based on DFT calculations at the B3LYP/6-311G(d,p) level.
In consideration of theranostic (therapeutics and diagnostic) applications, NIR cyanine fluorophores are synthesized for fluorescence imaging, photodynamic therapy (PDT), photothermal therapy (PTT), optoacoustic imaging, and cancer immunotherapy. One of the approaches before using these fluorophores in those applications is to study their biodistribution and clearance pattern in vivo. […] The power density of 150 W is much higher than the required power for fluorescence imaging, considering that the time it takes for a fluorophore to clear from the background and accumulate in sufficient quantities in the targeted tissues is unknown. […] By considering this, an aliquot of the stock solution (1 mM in DMSO) was diluted in ethanol, and the fluorescence intensity was measured at the excitation wavelength same as their absorption maxima (nm). Photodegradation rates were measured every 20 min intervals for the selected fluorophores based on the % reduced fluorescence intensity starting from 100%. […] The data were collected in every 20 min intervals under continuous irradiation with a xenon lamp at 150 W for 2 h and presented based on the % reduced fluorescence intensity starting from 100%. […]

Question: With `CCCCN1/C(=C/C=C2\CCCC(/C=C/C3=[N+](CCCC)c4ccc(Cl)cc4C3(C)C)=C2Cl)C(C)(C)c2cc(Cl)ccc21` [SH1, 1-butyl-2-((E)-2-((E)-3-(2-((E)-1-butyl-5-chloro-3,3-dimethylindolin-2-ylidene)ethylidene)-2-chlorocyclohex-1-en-1-yl)vinyl)-5-chloro-3,3-dimethyl-3H-indol-1-ium] as the compound, how does the TBR [1] read?
Answer: The TBR was 17.6.

Question: What about the “increase of % ID in cancer area” value (LLC tumor) of the same compound?
Answer: Its value is “more than 2 fold”.

Question: And the “photodegradation (% reduced fluorescence intensity)” value [2]?
Answer: The value was “I-4”.
